Reference: patent publication US6914045B2, “Glycopeptide antibiotics” (Wyeth Holdings Corporation, priority 2001, dated 2005)
Converted amounts (≈) assume the structure as drawn.

Columns and labels:
[1] = anatomic pathology (histopathology of heart and kidney) in mice; type: in vivo; settings: CD-1 mice, 20 mg/kg intravenously daily for 9 days, necropsy day 10, microscopic histopathology
Description: Samples of tissues from necropsied mice were formalin-fixed, paraffin-embedded, sectioned, stained with hematoxylin and eosin, and examined microscopically. Histopathologic findings were recorded. These findings were subjectively graded on a scale corresponding to slight, mild, moderate, marked and severe as compared to untreated controls.

[2] = clinical pathology (serum clinical chemistry) in mice; type: in vivo; settings: CD-1 mice, 20 mg/kg intravenously daily for 9 days, sera day 10
Description: 20-day-old CD-1 mice were divided into a vehicle control group (5 mice) and a treatment group (5 mice). Samples of glycopeptide antibiotics were administered at 20 mg/kg intravenously daily for 9 days.

[3] = system: Escherichia coli; test: in vitro antibacterial evaluation, MIC by broth dilution; type: cell-based; settings: 18 hours at 35° C.
Procedure, shortened: (§1)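 MIC = lowest antibiotic concentration preventing visible growth; inoculum 5×10^5 CFU/mL; drug range 64-0.06 μg/mL; Muller-Hinton II […]; NCCLS M7-A2 guidance.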

[4] = system: Streptococcus sp.; test: as above; type: cell-based; settings: broth dilution, 18 hours at 35° C.; for MIC Streptococcus pneumoniae (ATCC 6301): strain ATCC 6301; for MIC Streptococcus pneumoniae (GC 1894): strain GC 1894; for MIC Streptococcus pyogenes (GC 4563): strain GC 4563; for MIC Streptococcus agalactiae (GC 4564): strain GC 4564; for MIC Streptococcus pneumoniae (GC 4565): strain GC 4565
Procedure, shortened: as §1

[5] = system: Enterococcus sp.; test: as above; type: cell-based; settings: broth dilution, 18 hours at 35° C.; for MIC Enterococcus faecalis (GC 2242): strain GC 2242; for MIC Enterococcus faecalis (GC 2691): strain GC 2691; for MIC Enterococcus faecalis (GC 3059): strain GC 3059; for MIC Enterococcus faecalis (GC 4552): strain GC 4552
Procedure, shortened: as §1

[6] = system: Staphylococcus sp.; test: as above; type: cell-based; settings: broth dilution, 18 hours at 35° C.
Procedure, shortened: as §1

[7] = Enterococcus faecalis (ATCC 29212)
[8] = Enterococcus faecalis (GC 4553)
[9] = Enterococcus faecalis (GC 4554)
[10] = Enterococcus faecalis (GC 6189)

CC(C)CC(=O)OC1C(OC2C(CO)OC(Oc3ccc(CC4NC(=O)C(C(C)c5ccccc5)NC(=O)CNC(=O)C(CO)NC(=O)C(CC5CNC(=N)N5C5OC(CO)C(O)C(O)C5O)NC(=O)C(CC5CNC(=N)N5)NC4=O)cc3)C(O)C2O)OC(CO)C(O)C1O (stereo not drawn) [Example 277b, Cyclo[3-(2-iminoimidazolidin-4-yl)alanyl-3-(3-hexogyranosyl-2-iminoimidazolidin-4-yl)-alanylserylglycyl-β-methylphenylalanyl-O-[4-O-[2-O-(3-methylbutanoyl)hexopyranosyl]-hexopyranosyl]tyrosyl]]
Anatomical Pathology (Day 10), Heart [1]: 0
Anatomical Pathology (Day 10), Kidney [1]: +
Clinical Chemistry (Day 10) % of Control, ALT [2]: +164%
Clinical Chemistry (Day 10) % of Control, AST [2]: +138%
Clinical Chemistry (Day 10) % of Control, BUN [2]: +113%
MIC Escherichia coli (ATCC 25922) [3]: >64 µg/mL
MIC Escherichia coli (GC 4559) [3]: >64 µg/mL
MIC Escherichia coli (GC 4560) [3]: 32 µg/mL (≈ 23.7 µM)
MIC Streptococcus pneumoniae (ATCC 6301) [4]: 64 µg/mL (≈ 47.5 µM)
MIC Streptococcus pneumoniae (GC 1894) [4]: >64 µg/mL
MIC Streptococcus pyogenes (GC 4563) [4]: >64 µg/mL
MIC Streptococcus agalactiae (GC 4564) [4]: >64 µg/mL
MIC Streptococcus pneumoniae (GC 4565) [4]: >64 µg/mL
MIC Enterococcus avium (GC 4558) ([5]; Enterococcus avium (GC 4558)): >64 µg/mL
MIC Enterococcus faecalis (ATCC 29212) [5, 7]: >64 µg/mL
MIC Enterococcus faecalis (GC 4553) [5, 8]: >64 µg/mL
MIC Enterococcus faecalis (GC 4554) [5, 9]: >64 µg/mL
MIC Enterococcus faecalis (GC 6189) [5, 10]: >64 µg/mL
MIC Enterococcus faecium (GC 2243) ([5]; Enterococcus faecium (GC 2243)): >64 µg/mL
MIC Enterococcus faecium (GC 4556) ([5]; Enterococcus faecium (GC 4556)): >64 µg/mL
MIC Enterococcus faecium (GC 4557) ([5]; Enterococcus faecium (GC 4557)): >64 µg/mL
MIC Enterococcus faecalis (ATCC 29212) ([5]; strain ATCC 29212): >64 µg/mL
MIC Enterococcus faecalis (GC 2242) [5]: >64 µg/mL
MIC Enterococcus faecium (GC 2243) ([5]; strain GC 2243): >64 µg/mL
MIC Enterococcus faecalis (GC 2691) [5]: >64 µg/mL
MIC Enterococcus faecalis (GC 3059) [5]: >64 µg/mL
MIC Enterococcus faecalis (GC 4552) [5]: >64 µg/mL
MIC Enterococcus faecalis (GC 4553) ([5]; strain GC 4553): >64 µg/mL
MIC Enterococcus faecalis (GC 4554) ([5]; strain GC 4554): >64 µg/mL
MIC Enterococcus faecium (GC 4556) ([5]; strain GC 4556): >64 µg/mL
MIC Enterococcus faecium (GC 4557) ([5]; strain GC 4557): >64 µg/mL
MIC Enterococcus avium (GC 4558) ([5]; strain GC 4558): >64 µg/mL
MIC Enterococcus faecalis (GC 6189) ([5]; strain GC 6189): >64 µg/mL
MIC Coagulase Negative Staphylococcus (GC 4547) [6]: >64 µg/mL
MIC Coagulase Negative Staphylococcus (GC 4548) [6]: >64 µg/mL
MIC Coagulase Negative Staphylococcus (GC 4549) [6]: >64 µg/mL
MIC Coagulase Negative Staphylococcus (GC 4551) [6]: >64 µg/mL
MIC Coagulase Negative Staphylococcus (GC 6257) [6]: >64 µg/mL
MIC Staphylococcus aureus (ATCC 29213) [6]: >64 µg/mL
MIC Staphylococcus aureus (GC 1131) [6]: >64 µg/mL
MIC Staphylococcus aureus (GC 3051) [6]: >64 µg/mL
MIC Staphylococcus aureus (GC 3053) [6]: >64 µg/mL
MIC Staphylococcus aureus (GC 4541) [6]: >64 µg/mL
MIC Staphylococcus aureus (GC 4542) [6]: >64 µg/mL
MIC Staphylococcus aureus (GC 4544) [6]: >64 µg/mL
MIC Staphylococcus aureus (GC 4545) [6]: >64 µg/mL
MIC Staphylococcus aureus-SMITH (GC 4543) [6]: >64 µg/mL
MIC Staphylococcus haemolyticus (GC 4546) [6]: >64 µg/mL
MIC Staphylococcus aureus (ATCC 29213) ([6]; strain ATCC 29213): >64 µg/mL
MIC Staphylococcus aureus (GC 1131) ([6]; strain GC 1131): >64 µg/mL
MIC Staphylococcus aureus (GC 3051) ([6]; strain GC 3051): >64 µg/mL
MIC Staphylococcus aureus (GC 3053) ([6]; strain GC 3053): >64 µg/mL
MIC Staphylococcus aureus (GC 4541) ([6]; strain GC 4541): >64 µg/mL
MIC Staphylococcus aureus (GC 4542) ([6]; strain GC 4542): >64 µg/mL
MIC Staphylococcus aureus (GC 4544) ([6]; strain GC 4544): >64 µg/mL
MIC Staphylococcus aureus (GC 4545) ([6]; strain GC 4545): >64 µg/mL
MIC Staphylococcus haemolyticus (GC 4546) ([6]; strain GC 4546): >64 µg/mL
MIC Coagulase Negative Staphylococcus (GC 4547) ([6]; strain GC 4547): >64 µg/mL
MIC Coagulase Negative Staphylococcus (GC 4548) ([6]; strain GC 4548): >64 µg/mL
MIC Coagulase Negative Staphylococcus (GC 4549) ([6]; strain GC 4549): >64 µg/mL
MIC Coagulase Negative Staphylococcus (GC 4551) ([6]; strain GC 4551): >64 µg/mL
MIC Coagulase Negative Staphylococcus (GC 6257) ([6]; strain GC 6257): >64 µg/mL
MIC Staphylococcus aureus-SMITH (GC 4543) ([6]; strain SMITH GC 4543): >64 µg/mL

CC(c1ccccc1)C1NC(=O)CNC(=O)C(CO)NC(=O)C(CC2CNC(=N)N2C2OC(CO)C(O)C(O)C2O)NC(=O)C(CC2CNC(=N)N2)NC(=O)C(Cc2ccc(OC3OC(CO)C(OC4OC(CO)C(O)C(O)C4O)C(O)C3O)cc2)NC1=O (centres unmarked) [Example 277a]
Anatomical Pathology (Day 10), Heart [1]: 0
Anatomical Pathology (Day 10), Kidney [1]: ++
Clinical Chemistry (Day 10) % of Control, BUN [2]: +110%
MIC Escherichia coli (ATCC 25922) [3]: >128 µg/mL
MIC Escherichia coli (GC 4559) [3]: >128 µg/mL
MIC Escherichia coli (GC 4560) [3]: >128 µg/mL
MIC Streptococcus pneumoniae (ATCC 6301) [4]: >128 µg/mL
MIC Streptococcus pneumoniae (GC 1894) [4]: >128 µg/mL
MIC Streptococcus pyogenes (GC 4563) [4]: >128 µg/mL
MIC Streptococcus agalactiae (GC 4564) [4]: >128 µg/mL
MIC Streptococcus pneumoniae (GC 4565) [4]: >128 µg/mL
MIC Enterococcus avium (GC 4558) ([5]; Enterococcus avium (GC 4558)): 128 µg/mL (≈ 101 µM)
MIC Enterococcus faecalis (ATCC 29212) [5, 7]: >128 µg/mL
MIC Enterococcus faecalis (GC 4553) [5, 8]: >128 µg/mL
MIC Enterococcus faecalis (GC 4554) [5, 9]: >128 µg/mL
MIC Enterococcus faecalis (GC 6189) [5, 10]: >128 µg/mL
MIC Enterococcus faecium (GC 2243) ([5]; Enterococcus faecium (GC 2243)): >128 µg/mL
MIC Enterococcus faecium (GC 4556) ([5]; Enterococcus faecium (GC 4556)): >128 µg/mL
MIC Enterococcus faecium (GC 4557) ([5]; Enterococcus faecium (GC 4557)): 128 µg/mL (≈ 101 µM)
MIC Enterococcus faecalis (ATCC 29212) ([5]; strain ATCC 29212): >128 µg/mL
MIC Enterococcus faecalis (GC 2242) [5]: >128 µg/mL
MIC Enterococcus faecium (GC 2243) ([5]; strain GC 2243): >128 µg/mL
MIC Enterococcus faecalis (GC 2691) [5]: >128 µg/mL
MIC Enterococcus faecalis (GC 3059) [5]: >128 µg/mL
MIC Enterococcus faecalis (GC 4552) [5]: >128 µg/mL
MIC Enterococcus faecalis (GC 4553) ([5]; strain GC 4553): >128 µg/mL
MIC Enterococcus faecalis (GC 4554) ([5]; strain GC 4554): >128 µg/mL
MIC Enterococcus faecium (GC 4556) ([5]; strain GC 4556): >128 µg/mL
MIC Enterococcus faecium (GC 4557) ([5]; strain GC 4557): 128 µg/mL (≈ 101 µM)
MIC Enterococcus avium (GC 4558) ([5]; strain GC 4558): 128 µg/mL (≈ 101 µM)
MIC Enterococcus faecalis (GC 6189) ([5]; strain GC 6189): >128 µg/mL
MIC Coagulase Negative Staphylococcus (GC 4547) [6]: >128 µg/mL
MIC Coagulase Negative Staphylococcus (GC 4548) [6]: >128 µg/mL
MIC Coagulase Negative Staphylococcus (GC 4549) [6]: >128 µg/mL
MIC Coagulase Negative Staphylococcus (GC 4551) [6]: >128 µg/mL
MIC Staphylococcus aureus (ATCC 29213) [6]: >128 µg/mL
MIC Staphylococcus aureus (GC 1131) [6]: >128 µg/mL
MIC Staphylococcus aureus (GC 3051) [6]: >128 µg/mL
MIC Staphylococcus aureus (GC 3053) [6]: >128 µg/mL
MIC Staphylococcus aureus (GC 4541) [6]: >128 µg/mL
MIC Staphylococcus aureus (GC 4542) [6]: >128 µg/mL
MIC Staphylococcus aureus (GC 4544) [6]: >128 µg/mL
MIC Staphylococcus aureus (GC 4545) [6]: >128 µg/mL
MIC Staphylococcus aureus-SMITH (GC 4543) [6]: >128 µg/mL
MIC Staphylococcus haemolyticus (GC 4546) [6]: >128 µg/mL
MIC Staphylococcus aureus (ATCC 29213) ([6]; strain ATCC 29213): >128 µg/mL
MIC Staphylococcus aureus (GC 1131) ([6]; strain GC 1131): >128 µg/mL
MIC Staphylococcus aureus (GC 3051) ([6]; strain GC 3051): >128 µg/mL
MIC Staphylococcus aureus (GC 3053) ([6]; strain GC 3053): >128 µg/mL
MIC Staphylococcus aureus (GC 4541) ([6]; strain GC 4541): >128 µg/mL
MIC Staphylococcus aureus (GC 4542) ([6]; strain GC 4542): >128 µg/mL
MIC Staphylococcus aureus (GC 4544) ([6]; strain GC 4544): >128 µg/mL
MIC Staphylococcus aureus (GC 4545) ([6]; strain GC 4545): >128 µg/mL
MIC Staphylococcus haemolyticus (GC 4546) ([6]; strain GC 4546): >128 µg/mL
MIC Coagulase Negative Staphylococcus (GC 4547) ([6]; strain GC 4547): >128 µg/mL
MIC Coagulase Negative Staphylococcus (GC 4548) ([6]; strain GC 4548): >128 µg/mL
MIC Coagulase Negative Staphylococcus (GC 4549) ([6]; strain GC 4549): >128 µg/mL
MIC Coagulase Negative Staphylococcus (GC 4551) ([6]; strain GC 4551): >128 µg/mL
MIC Staphylococcus aureus-SMITH (GC 4543) ([6]; strain SMITH GC 4543): >128 µg/mL
